Reference: ChEMBL document CHEMBL1201862, “PubChem BioAssay data set” (2004)
Each block holds one molecule with its values, some of them ahead of it. Activity calls are given as the source filed them.

What was measured:
Aminopeptidase N = biological target: T1, Aminopeptidase N (Plasmodium falciparum FcB1/Columbia, UniProt O96935); test: P. falciparum M1AAP inhibitors, biochemical, fluorogenic H-Leu-NHMec substrate, 1536-well (AID 1445); design: species or system Plasmodium falciparum 3D7, 3D7
T1 sequence (O96935 whole entry): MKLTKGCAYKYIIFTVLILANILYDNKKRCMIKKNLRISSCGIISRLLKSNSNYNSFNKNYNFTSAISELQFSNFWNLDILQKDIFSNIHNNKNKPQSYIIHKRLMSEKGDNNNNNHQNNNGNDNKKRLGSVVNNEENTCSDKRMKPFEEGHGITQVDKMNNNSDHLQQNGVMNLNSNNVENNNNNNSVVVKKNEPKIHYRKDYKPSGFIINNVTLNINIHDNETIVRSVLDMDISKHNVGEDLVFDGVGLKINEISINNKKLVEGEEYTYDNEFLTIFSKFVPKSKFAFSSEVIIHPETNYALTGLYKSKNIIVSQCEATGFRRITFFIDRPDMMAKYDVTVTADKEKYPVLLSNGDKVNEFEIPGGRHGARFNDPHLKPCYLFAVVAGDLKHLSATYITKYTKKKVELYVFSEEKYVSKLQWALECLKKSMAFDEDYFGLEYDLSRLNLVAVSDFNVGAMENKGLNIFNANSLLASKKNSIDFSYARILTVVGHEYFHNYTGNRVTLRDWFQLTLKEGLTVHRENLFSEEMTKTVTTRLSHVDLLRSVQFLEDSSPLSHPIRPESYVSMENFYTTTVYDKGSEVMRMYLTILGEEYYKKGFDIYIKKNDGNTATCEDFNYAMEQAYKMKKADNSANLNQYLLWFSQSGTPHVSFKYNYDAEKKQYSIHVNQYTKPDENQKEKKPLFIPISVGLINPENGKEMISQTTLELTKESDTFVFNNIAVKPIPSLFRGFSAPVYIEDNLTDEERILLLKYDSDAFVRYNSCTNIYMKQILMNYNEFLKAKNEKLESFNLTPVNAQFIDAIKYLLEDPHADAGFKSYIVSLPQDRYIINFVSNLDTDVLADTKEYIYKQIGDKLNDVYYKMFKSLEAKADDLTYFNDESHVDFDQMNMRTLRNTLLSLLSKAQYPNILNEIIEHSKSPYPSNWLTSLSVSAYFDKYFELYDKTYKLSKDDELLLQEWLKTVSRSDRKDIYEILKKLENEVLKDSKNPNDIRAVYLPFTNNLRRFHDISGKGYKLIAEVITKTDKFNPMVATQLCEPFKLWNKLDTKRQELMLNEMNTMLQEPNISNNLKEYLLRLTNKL

[1] = biological target: Sphingosine 1-phosphate receptor 2 (Homo sapiens, UniProt O95136); test: Dose Response Cell Based Assay for Agonists of the S1P2 Receptor. [Related pubchem assays: 729, 736, 843 ]; assay type: functional
[2] = P. falciparum 3D7-ScDHODH growth inhibitors, dose response, SYBR Green, dry powder samples (AID 1159570); assay type: functional, cell-based;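 note: parasite growth measured after 72 hours of compound exposure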
[3] = HepG2 cell cytotoxicity, dose response, cytotoxicity control, plate reader, dry powder samples (AID 1159569); assay type: functional, cell-based;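 note: inhibitor potency with signal falling toward the positive control level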
[4] = P. falciparum Dd2 growth inhibitors, dose response, SYBR Green, dry powder samples, set 9 (AID 1159568); assay type: functional, cell-based
[5] = P. falciparum Dd2 growth inhibitors, dose response, SYBR Green, cherry-picked samples (AID 1159567); assay type: functional, cell-based
[6] = P. falciparum Dd2 growth inhibitors, dose response, SYBR Green, dry powder samples (AID 1159566); assay type: functional, cell-based;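 note: potency for growth inhibition with lower SYBR green DNA signal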
[7] = P. falciparum ATP4 D1247Y mutant growth inhibitors, dose response, NITD609-resistant line, SYBR Green, dry powder (AID 1159571); assay type: functional, cell-based;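 note: parasites synchronized at ring stage by sorbitol before testing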
[8] = Plasmodium falciparum Dd2 Sybr green parasite growth Measured in Cell-Based and Microorganism Combination System Using Plate Reader - 2153-01_Inhibitor_Dose_DryPowder_Activity_Set10.; assay type: functional
[9] = Concentration-dependent survival of SW480 colon cancer line, luminescence detection with CellTiter-Glo, half-maximal inhibitory concentration (AID 1117338); assay type: functional
[10] = RKO cell viability reduction, dose response, CellTiter-Glo luminescence (AID 1117322); assay type: functional
[11] = cytotoxicity toward HCT116 cells – cell-based, CellTiter-Glo luminescence, IC50, dose response (AID 1117332); assay type: functional; settings: HCT-116
[12] = SNU-C1 cell viability reduction, dose response, CellTiter-Glo luminescence (AID 1117323); assay type: functional, cell-based
[13] = cytotoxicity toward Colo320 cells – cell-based, CellTiter-Glo luminescence, IC50, dose response (AID 1117334); assay type: functional; settings: COLO 320
[14] = cytotoxicity toward HT-29 cells – cell-based, CellTiter-Glo luminescence, IC50, dose response (AID 1117330); assay type: functional
[15] = CellTiter-Glo luminescent dose response of DLD-1 viability loss (AID 1117352); assay type: functional
[16] = HCT116 cell viability decrease, GSK3B pretreatment – CellTiter-Glo, IC50, dose response (AID 1117339); assay type: functional; settings: HCT-116
[17] = biological target: T2, Polyadenylate-binding protein 1 (Homo sapiens, UniProt P11940); test: PABP1 MLLE–PAM2 interaction inhibitors, dose response, miRNA deadenylation inhibitor project, biochemical, fluorescence polarization, Cy5-PAM2 peptide, secondary (AID 602260); assay type: functional; settings: read-out: IC50_Mean
[18] = biological target: T2, Polyadenylate-binding protein 1; test: PABP1 MLLE–PAM2 binding inhibitor potency, dose response, biochemical, fluorescence polarization, FITC-PAM2 peptide (AID 602259); assay type: functional; settings: read-out: IC50_Mean
[19] = biological target: T3, Rac GTPase-activating protein 1 (Homo sapiens, UniProt Q9H0H5); test: MgcRacGAP GTPase-activating activity inhibitors, confirmation, biochemical, ADP Hunter fluorescence, primary and confirmatory (AID 624330); assay type: functional
T3 sequence (Q9H0H5 whole entry): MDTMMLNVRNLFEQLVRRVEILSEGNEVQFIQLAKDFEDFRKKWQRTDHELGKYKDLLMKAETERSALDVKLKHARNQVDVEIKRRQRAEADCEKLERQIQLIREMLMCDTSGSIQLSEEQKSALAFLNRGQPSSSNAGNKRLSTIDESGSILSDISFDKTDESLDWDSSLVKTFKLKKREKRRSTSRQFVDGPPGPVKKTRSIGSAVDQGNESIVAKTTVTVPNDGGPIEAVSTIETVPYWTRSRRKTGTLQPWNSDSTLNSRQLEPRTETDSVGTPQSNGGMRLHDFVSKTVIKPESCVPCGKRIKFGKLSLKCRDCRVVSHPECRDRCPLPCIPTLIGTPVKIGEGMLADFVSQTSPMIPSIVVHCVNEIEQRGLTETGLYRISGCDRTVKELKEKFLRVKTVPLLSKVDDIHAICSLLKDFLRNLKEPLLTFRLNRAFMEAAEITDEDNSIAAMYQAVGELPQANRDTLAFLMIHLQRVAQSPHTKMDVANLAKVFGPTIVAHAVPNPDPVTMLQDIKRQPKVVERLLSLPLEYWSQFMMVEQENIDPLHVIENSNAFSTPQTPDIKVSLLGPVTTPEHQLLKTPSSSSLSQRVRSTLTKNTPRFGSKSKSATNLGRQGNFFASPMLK

Caspase-6 = biological target: T4, Caspase-6 (Homo sapiens, UniProt P55212); test: human caspase-6 inhibitors, dose response, biochemical, VEID-R110 fluorescence, cherry-pick (AID 720632)
T4 sequence (P55212 whole entry): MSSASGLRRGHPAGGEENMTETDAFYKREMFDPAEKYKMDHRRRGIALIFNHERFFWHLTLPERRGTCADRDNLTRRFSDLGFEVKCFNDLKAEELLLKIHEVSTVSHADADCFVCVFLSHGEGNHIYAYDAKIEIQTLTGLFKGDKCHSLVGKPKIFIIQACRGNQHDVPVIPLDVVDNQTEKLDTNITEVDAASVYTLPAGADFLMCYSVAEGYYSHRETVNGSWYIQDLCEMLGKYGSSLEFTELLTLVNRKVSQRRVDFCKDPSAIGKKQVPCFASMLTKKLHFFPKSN

Caspase-9 = Caspase-9 (Homo sapiens, UniProt P55211); test: caspase-9 enzyme inhibition, dose response, selectivity assay for caspase-6 inhibitor project, biochemical, fluorescence, plate reader, cherry-picked samples (AID 743293)
Caspase-7 = Caspase-7 (Homo sapiens, UniProt P55210); test: human caspase-7 inhibitors, dose response, selectivity assay for caspase-6 inhibitor project, biochemical, DEVD-R110 fluorescence, cherry-pick (AID 743295)
[20] = Vero cell cytotoxicity, dose response, cytotoxicity control for Vif-APOBEC3G degradation inhibitor project, Vero cells (AID 1117358); assay type: functional; settings: Human immunodeficiency virus 1, Vero

T2 sequence (P11940 whole entry): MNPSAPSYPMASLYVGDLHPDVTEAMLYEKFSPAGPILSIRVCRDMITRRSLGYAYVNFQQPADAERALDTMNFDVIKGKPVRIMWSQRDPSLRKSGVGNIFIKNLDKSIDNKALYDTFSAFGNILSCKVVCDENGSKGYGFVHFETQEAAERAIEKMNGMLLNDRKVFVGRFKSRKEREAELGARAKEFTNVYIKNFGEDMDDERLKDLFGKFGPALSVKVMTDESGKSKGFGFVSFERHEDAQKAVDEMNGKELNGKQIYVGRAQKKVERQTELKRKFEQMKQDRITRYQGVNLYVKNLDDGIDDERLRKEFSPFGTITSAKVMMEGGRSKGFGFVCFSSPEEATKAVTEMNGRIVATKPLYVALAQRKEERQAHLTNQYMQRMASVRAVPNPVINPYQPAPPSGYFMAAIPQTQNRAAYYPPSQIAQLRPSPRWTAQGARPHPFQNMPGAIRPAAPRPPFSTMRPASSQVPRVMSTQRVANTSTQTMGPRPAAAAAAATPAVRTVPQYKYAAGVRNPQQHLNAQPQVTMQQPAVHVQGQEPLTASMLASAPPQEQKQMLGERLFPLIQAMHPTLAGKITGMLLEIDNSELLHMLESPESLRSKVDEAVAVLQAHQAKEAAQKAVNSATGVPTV
Chain of Sphingosine 1-phosphate receptor 2 (O95136 whole entry): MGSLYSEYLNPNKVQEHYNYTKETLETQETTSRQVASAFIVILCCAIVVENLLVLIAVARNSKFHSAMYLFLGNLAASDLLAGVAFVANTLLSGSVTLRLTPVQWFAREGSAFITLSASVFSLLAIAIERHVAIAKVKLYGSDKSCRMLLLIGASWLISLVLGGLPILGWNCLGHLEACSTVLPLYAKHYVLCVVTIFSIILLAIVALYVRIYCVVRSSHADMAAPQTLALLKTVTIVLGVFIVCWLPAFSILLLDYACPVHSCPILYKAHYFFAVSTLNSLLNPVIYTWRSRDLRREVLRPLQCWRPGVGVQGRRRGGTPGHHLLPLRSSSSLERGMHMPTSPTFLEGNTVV
Chain of Caspase-9 (P55211 1-315 limits assumed): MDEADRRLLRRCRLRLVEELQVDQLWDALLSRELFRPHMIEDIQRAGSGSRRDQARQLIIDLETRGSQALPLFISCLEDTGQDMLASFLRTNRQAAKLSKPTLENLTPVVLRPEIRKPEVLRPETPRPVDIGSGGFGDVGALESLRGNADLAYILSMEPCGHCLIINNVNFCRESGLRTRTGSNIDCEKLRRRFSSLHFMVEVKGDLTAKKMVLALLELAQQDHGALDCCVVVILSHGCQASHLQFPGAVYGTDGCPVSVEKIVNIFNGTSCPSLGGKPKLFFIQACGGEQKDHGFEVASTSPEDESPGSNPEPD
Chain of Caspase-9 (P55211 331-416 limits assumed): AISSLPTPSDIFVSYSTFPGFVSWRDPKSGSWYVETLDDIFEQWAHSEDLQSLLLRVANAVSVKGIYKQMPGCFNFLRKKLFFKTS
Chain of Caspase-7 (P55210 24-198 limits assumed): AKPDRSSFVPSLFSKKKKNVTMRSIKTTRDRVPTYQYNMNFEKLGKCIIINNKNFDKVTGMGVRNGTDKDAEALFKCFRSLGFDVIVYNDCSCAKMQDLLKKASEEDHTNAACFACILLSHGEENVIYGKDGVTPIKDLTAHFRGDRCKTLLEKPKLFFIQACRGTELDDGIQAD
Chain of Caspase-7 (P55210 207-303 limits assumed): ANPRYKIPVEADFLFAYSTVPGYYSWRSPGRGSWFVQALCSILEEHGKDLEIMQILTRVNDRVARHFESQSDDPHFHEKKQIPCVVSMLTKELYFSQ

IC50 (Aminopeptidase N): 61.8 µM (active)
EC50 [1]: > 50 µM (not active)
Structure (SMILES): O=C(Nc1ccccn1)Nc1cccs1

Structure (SMILES): C/C=C/c1ccc([C@H]2[C@@H](CO)N(CC3CCCCC3)[C@@H]2CNC(C)C)cc1
AC50 [2]: 0.396 µM (active)
AC50 [3]: 49.3 µM (active)
AC50 [4]: 0.316 µM (active)
AC50 [5]: 0.494 µM (active)
AC50 [6]: 0.231 µM (active)
AC50 [7]: 0.294 µM (active)

Structure (SMILES): COc1ccc(-c2ccccc2[C@H]2[C@@H](C#N)N(C(=O)C3CCCC3)[C@H]2CO)cc1
AC50 [2]: 0.368 µM (active)
AC50 [3]: 63.3 µM (active)
AC50 [5]: 0.479 µM (active)
AC50 [6]: 0.346 µM (active)
AC50 [8]: 1.11 µM (active)
AC50 [7]: 1.78 µM (active)

Structure (SMILES): CO[C@H]1O[C@@H]2O[C@@]3(C)CC[C@H]4[C@H](C)CC[C@@H]([C@@H]1C)[C@@]24OO3
IC50 [9]: > 20 µM (inactive)
IC50 [10]: > 20 µM (inactive)
IC50 [11]: > 20 µM (inactive)
IC50 [12]: > 20 µM (inactive)
IC50 [13]: > 20 µM (inactive)
IC50 [14]: > 20 µM (inactive)
IC50 [15]: > 20 µM (inactive)
IC50 [16]: > 20 µM (inactive)

IC50 [17]: > 66 µM (inactive)
IC50 [18]: 49.3 µM (inactive)
IC50 [19]: 31.7 µM (active)
AC50 (Caspase-6): 1.52 µM (active)
AC50 (Caspase-9): > 70 µM (inactive)
AC50 (Caspase-7): 23.2 µM (active)
Structure (SMILES): COc1cc(NC(C)CCCNC(C)C)c2ncccc2c1OC (centres undefined)

Structure (SMILES): CSc1cccc(-n2cc(-c3ccc4c(c3)OCO4)nc2O)c1
CC50 [20]: > 40 µM (active)
